Results reported in paper PMC8659060, “Neuroprotective Potential of Synthetic Mono-Carbonyl Curcumin Analogs Assessed by Molecular Docking Studies” (Molecules, 2021).
Where two headings read alike, the source gives them in different places.

Tests used:
BChE = molecular target: T1, BChE (Equus caballus, UniProt P81908); assay: biochemical; settings: for inhibition at 62.5 µg/mL / inhibition at 125 µg/mL / inhibition at 250 µg/mL / inhibition at 500 µg/mL / inhibition at 1000 µg/mL: read-out: BChE percent enzyme inhibition, Mean ± SEM
T1 construct: obtaining AChE and BChE enzymes from electric eel and equine serum, respectively; from tissue; host or cells: equine serum
T1 sequence (P81908 whole entry): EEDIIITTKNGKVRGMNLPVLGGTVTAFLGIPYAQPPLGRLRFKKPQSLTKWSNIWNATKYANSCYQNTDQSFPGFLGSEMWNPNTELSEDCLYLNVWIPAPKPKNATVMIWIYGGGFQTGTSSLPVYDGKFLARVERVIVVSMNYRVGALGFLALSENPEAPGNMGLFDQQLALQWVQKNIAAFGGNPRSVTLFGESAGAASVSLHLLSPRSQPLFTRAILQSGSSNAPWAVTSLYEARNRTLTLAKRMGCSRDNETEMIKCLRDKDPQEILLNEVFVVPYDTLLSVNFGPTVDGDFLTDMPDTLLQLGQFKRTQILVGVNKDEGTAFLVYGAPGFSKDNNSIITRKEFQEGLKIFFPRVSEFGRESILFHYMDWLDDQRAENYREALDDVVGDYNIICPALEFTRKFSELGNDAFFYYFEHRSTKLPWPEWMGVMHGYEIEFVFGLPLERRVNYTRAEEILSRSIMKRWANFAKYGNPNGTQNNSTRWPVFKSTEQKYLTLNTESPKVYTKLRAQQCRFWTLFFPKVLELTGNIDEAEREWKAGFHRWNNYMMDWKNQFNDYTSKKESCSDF
Experimental: (§1) Evaluation of anticholinesterase activity of the synthesized compounds was performed according to Ellman’s method and was determined by obtaining AChE and BChE enzymes from electric eel and equine serum, respectively. DMSO was used for the dissolution of test samples (1 mg/mL), which were diluted in phosphate buffer (0.1 M) to concentrations from 1000 to 62.5 µg/mL. Phosphate buffer in 0.1 M, pH 8.0 was used for the dilution of 518 U/mg AChE and 7–16 U/mg BChE to obtain final concentrations of 0.03 U/mL and 0.01 U/mL for AChE and BChE, respectively. Substrate solutions of 0.5 mM ATchI, 0.2273 mM DTNB and 0.5 mM BTchI in distilled water were made and maintained separately in Eppendorf tubes at 8 °C in a refrigerator. The assay was started by adding 5 µL enzyme solution to a cuvette, then adding 205 µL test sample followed by 5 µL DTNB reagent. A 5 µL volume of substrate solution was added, and the solution mixture was maintained for 15 min in water bath at 30 °C. A spectrophotometer was used to measure absorbance at 412 nm at 30 °C with a reaction time of 4 min. […] The following formula was used for calculation of % enzyme inhibition.

[1] = tested on: scopolamine-induced memory impairment in mice; assay: Novel object recognition test (NORT), scopolamine-induced memory impairment; assay type: in vivo, Balb/C mice; settings: for % DI in exploring the novel object versus scopolamine-treated group (in words): long-term memory, donepezil 2 mg/kg; for % DI in exploring the novel object versus scopolamine-treated group (in words) / Exploration time for the novel object in the test phase (in words): h compounds 7.5 and 15 mg/kg; for Exploration time for the novel object in the test phase (in words): DZP 2 mg/kg; for % DI versus scopolamine-treated group (in words): 7.5 and 15 mg/kg p.o.
Experimental: (§2) Balb/C mice iwth a weight of (17–23 gm) were procured from the NIH (National Institute of Health), Islamabad, which were kept for breeding under favorable conditions in the animal house of the Pharmacy Department, Shaheed Benazir Bhutto University Sheringal Dir (Upper). Light/dark cycle of about 12 h each was maintained, with relative humidity of 50–55% at 22–25 °C. This work was conducted with approval from the Departmental Ethical Committee (SBBU/IEC-20-02) of the Scientific Procedure Issue-I of the University of Malakand in compliance with provision of the 2008 Animal Byelaws.
(§3) Mice were divided into thirteen groups with 6 mice in each group.
(§4) Group I. Normal control group (vehicle treated) received 10 mL/kg (i.p.) normal saline.
(§5) Group IV–XIII. Sample (curcumin analog)-treated groups. Synthesized curcumin analogs were administered in doses of 7.5 mg/kg and 15 mg/kg (p.o.), respectively.
(§6) The groups were kept for 7 days at various treatments doses.
The synthesized curcumin analogs were tested for possible memory enhancement potential by using novel object recognition test apparatus, which was designed using plexi glass with dimension of 40 cm × 40 cm × 30 cm. The mice, after acclimatization period, were allowed to move for 2–3 min one day before the test for habituation. In the two corners of the NORT apparatus, two identical objects were placed on the test day in the sample phase (T1), and the object exploration time was recorded. The objects were regarded as being explored when the mice touched the objects or directed their nose toward the object at a distance of less than 2 cm, […], the test phase (T2) was started, in which one of the familiar objects was replaced with a novel (new) object. Mice again freely explored the objects in similar manner to that in T1, and the exploration time for the novel (new) object and the familiar (F) object were noted separately. The DI (discrimination index) was measured using the following formula: DI=N−F/N+F

[2] = tested on: scopolamine-induced amnesia in mice; assay: Elevated plus maze (EPM), scopolamine-induced amnesia; assay type: in vivo, Balb/C mice; settings: then scopolamine 1 mg/kg i.p., mean ± SEM, n = 6
Experimental: as §2, §3, §4, §5, §6
The EPM consisted of two open arms and two closed arms with dimensions of 16 cm × 5 cm × 12 cm, and was made from two poly acrylic sheets and designed as a plus sign with a central platform with dimensions of 5 cm × 5 cm, which was elevated 25 cm from the floor on a wooden stand. Mice were placed in the open arm in such a position that their direction was facing away from the central platform; then, the transfer latency time (TLT) was noted when the mice moved to the closed arm with its four legs from the open arm and then returned to their home cage. […] The following formula was used for calculation of inflexion ratio (IR). IR=L0−L1/L0 where L1 = initial transfer latency (s) and L0 = retention transfer latency (s).

AChE = molecular target: T2, AChE (Electrophorus electricus, UniProt O42275); assay: biochemical; settings: for inhibition at 62.5 µg/mL / inhibition at 125 µg/mL / inhibition at 250 µg/mL / inhibition at 500 µg/mL / inhibition at 1000 µg/mL: read-out: AChE percent enzyme inhibition, Mean ± SEM
T2 construct: obtaining AChE and BChE enzymes from electric eel and equine serum, respectively; from tissue; host or cells: electric eel
T2 sequence (O42275 24-633): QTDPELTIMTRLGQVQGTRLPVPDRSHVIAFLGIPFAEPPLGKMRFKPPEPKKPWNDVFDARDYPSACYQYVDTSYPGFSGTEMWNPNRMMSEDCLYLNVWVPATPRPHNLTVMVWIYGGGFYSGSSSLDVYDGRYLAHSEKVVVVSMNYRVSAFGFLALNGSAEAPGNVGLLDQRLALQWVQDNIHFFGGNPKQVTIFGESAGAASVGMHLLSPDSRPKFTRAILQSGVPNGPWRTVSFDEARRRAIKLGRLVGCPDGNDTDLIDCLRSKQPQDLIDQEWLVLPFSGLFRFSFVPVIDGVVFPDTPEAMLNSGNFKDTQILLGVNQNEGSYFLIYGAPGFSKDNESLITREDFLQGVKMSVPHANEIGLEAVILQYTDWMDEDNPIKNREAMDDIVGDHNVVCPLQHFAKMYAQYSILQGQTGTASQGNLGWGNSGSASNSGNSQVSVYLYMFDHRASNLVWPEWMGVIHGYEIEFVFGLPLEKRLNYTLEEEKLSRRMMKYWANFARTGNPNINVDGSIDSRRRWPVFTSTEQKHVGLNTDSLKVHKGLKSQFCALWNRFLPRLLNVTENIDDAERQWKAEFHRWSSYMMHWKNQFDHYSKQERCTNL
Experimental: as §1

[3] = tested on: T3, BChE in the hippocampus region of mouse brain; assay type: in vivo; settings: pretreatment, then scopolamine, n = 6
T3 construct: from tissue; host or cells: mouse brain hippocampus (supernatant of homogenate)
Experimental: as §6
(§7) The mice were sacrificed immediately after the behavioral study by cervical dislocation to provide quick and painless death to each animal before decapitation. Brain of each animal was excised in phosphate buffer saline (chilled) and incorporated into biochemical biomarker analysis.
(§8) Cholinesterase (AChE and BChE) levels were determined in the excised brain hippocampus using Ellman’s method with slight modification. Supernatant (0.4 mL), 0.1 M/L, pH 8 phosphate buffer (2.6 mL), and 100 µL of DTNB (5,5′-dithiobis-2-nitrobenzoic acid) and were added into cuvette and mixed. Spectrophotometer at 412 nm was run and absorbance was measured several times, then […] acetyl thiocholine iodide/butyrylthiocholine chloride was mixed into the reaction as substrate at an interval of 2 min, and variation in absorbance was noted and the changes in absorbance per min were recorded. The following formula was used for calculation of cholinesterase level: R = 5.74 × 10^−4 × A/CO where ‘R’ is the moles (rate) of substrate hydrolyzed/min/mg of protein, (A) is the change in absorbance/min, and ‘CO’ is concentration (20 mg/mL) of protein.

[4] = tested on: T4, AChE in the hippocampus region of mouse brain; assay type: in vivo; settings: pretreatment, then scopolamine, n = 6
T4 construct: from tissue; host or cells: mouse brain hippocampus (supernatant of homogenate)
Experimental: as §6, §7, §8

[5] = Ellman's method, 1000 to 62.5 μg/mL, n = 3, read-out: BChEI (IC50) (converted)
[6] = Ellman's method, 1000 to 62.5 μg/mL, n = 3, read-out: AChEI (IC50) (converted)

Row | SMILES | % DI in exploring the novel object versus scopolamine-treated group (in words) [1] | Exploration time for the novel object in the test phase (in words) ([1]; short-term memory) | Retention (transfer latency time, TLT) ([2]; 7.5 mg/kg p.o. for 7 days) [s] | Retention (transfer latency time, TLT) ([2]; 15 mg/kg p.o. for 7 days) [s] | inhibition at 62.5 µg/mL (BChE; 62.5 µg/mL) [%] | inhibition at 125 µg/mL (BChE; 125 µg/mL) [%] | inhibition at 250 µg/mL (BChE; 250 µg/mL) [%] | inhibition at 500 µg/mL (BChE; 500 µg/mL) [%] | inhibition at 1000 µg/mL (BChE; 1000 µg/mL) [%] | IC50 (BChE; [5]) [µM] | inhibition at 62.5 µg/mL (AChE; 62.5 µg/mL) [%] | inhibition at 125 µg/mL (AChE; 125 µg/mL) [%] | inhibition at 250 µg/mL (AChE; 250 µg/mL) [%] | inhibition at 500 µg/mL (AChE; 500 µg/mL) [%] | inhibition at 1000 µg/mL (AChE; 1000 µg/mL) [%] | IC50 (AChE; [6]) [µM] | Reversal of scopolamine-increased hippocampus BChE level (in words) [3] | Reversal of scopolamine-increased hippocampus AChE level (in words) [4] | % DI versus scopolamine-treated group (in words) ([1]; short-term memory) | also measured
1 | COc1ccc2c3c1O[C@H]1C[C@@H](O)C=C[C@@]31CCN(C)C2 [Galanthamine, reference compound] |  |  |  |  |  |  |  |  |  |  |  |  |  |  |  |  |  |  |  | inhibition at 62.5 µg/mL (BChE): 61.35 ± 0.18%; inhibition at 125 µg/mL (BChE): 66.2 ± 0.15%; inhibition at 250 µg/mL (BChE): 73.42 ± 0.11%; inhibition at 500 µg/mL (BChE): 78.62 ± 0.17%
2 | COc1ccc(/C=C/C(=O)/C=C/c2ccc(OC)cc2)cc1 [h2, (1E,4E)-1,5-bis(4-Methoxyphenyl)penta-1,4-dien-3-one] | significant increase | significantly more time exploring the novel object | 31.51 ± 2.73 | 25.32 ± 2.42 | 41.82 ± 0.18 | 48.61 ± 0.15 | 57.22 ± 0.01 | 64.38 ± 0.06 | 69.77 ± 0.03 | 503 | 46.88 ± 0.15 | 53.57 ± 0.17 | 61.21 ± 0.18 | 73.79 ± 0.12 | 76.23 ± 0.15 | 317 | significantly reversed | reversed |  | 
3 | O=C(/C=C/c1ccc([N+](=O)[O-])cc1)/C=C/c1ccc([N+](=O)[O-])cc1 [h5, (1E,4E)-1,5-bis(4-Nitrophenyl)penta-1,4-dien-3-one] | no promising results |  | 34.71 ± 1.37 | 31.51 ± 1.54 |  |  |  |  |  |  |  |  |  |  |  |  | no promising results | no prominent | no promising results | IC50 (BChE): 3050 µM; inhibition at 62.5 µg/mL (BChE): 16.2 ± 0.83%; inhibition at 125 µg/mL (BChE): 20.3 ± 0.31%; inhibition at 250 µg/mL (BChE): 32.73 ± 0.01%; inhibition at 500 µg/mL (BChE): 43.51 ± 0.13%; inhibition at 1000 µg/mL (BChE): 51.82 ± 0.16%; IC50 (AChE): 1950 µM; inhibition at 62.5 µg/mL (AChE): 26.45 ± 0.18%; inhibition at 125 µg/mL (AChE): 35.51 ± 0.06%; inhibition at 250 µg/mL (AChE): 41.27 ± 0.04%; inhibition at 500 µg/mL (AChE): 47.33 ± 0.16%; inhibition at 1000 µg/mL (AChE): 58.41 ± 0.13%
4 | Cc1ccc(/C=C/C(=O)/C=C/c2ccc(C)cc2)cc1 [h1, (1E,4E)-1,5-Di-p-tolylpenta-1,4-dien-3-one] | significant increase |  | 33.13 ± 2.16 | 26.18 ± 2.32 | 37.16 ± 0.12 | 46.25 ± 0.13 | 51.91 ± 0.14 | 56.42 ± 0.16 | 62.16 ± 0.04 | 927 | 45.63 ± 0.13 | 54.34 ± 0.17 | 58.12 ± 0.16 | 68.07 ± 0.18 | 79.67 ± 0.21 | 399 | no promising results | no prominent | comparable values | 
5 | COc1cc2c(cc1OC)C(=O)C(CC1CCN(Cc3ccccc3)CC1)C2 (stereo not drawn) [Donepezil, reference compound] | significant increase | significantly higher exploration times |  |  |  |  |  |  |  |  |  |  |  |  |  |  |  |  |  | Exploration time for the novel object ([1]; short-term memory, test phase, 2 mg/kg p.o. + scopolamine 1 mg/kg i.p.): 21.59 ± 2.44 s; Retention (transfer latency time, TLT) ([2]; 2 mg/kg p.o. for 7 days): 25.57 ± 1.93 s; Retention (transfer latency time, TLT) ([2]; 2 mg/kg p.o. for 7 days, listed as donepezil): 25.57 ± 1.93 s
6 | O=C(/C=C/c1ccc(Cl)cc1)/C=C/c1ccc(Cl)cc1 [h3, (1E,4E)-1,5-bis(4-Chlorophenyl)penta-1,4-dien-3-one] | significant increase | significantly more time exploring the novel object | 25.26 ± 2.51 | 21.27 ± 2.92 | 49.25 ± 0.02 | 58.33 ± 0.13 | 62.41 ± 0.19 | 69.52 ± 0.12 | 78.72 ± 0.16 | 222 | 53.53 ± 0.12 | 62.44 ± 0.16 | 69.51 ± 0.13 | 77.25 ± 0.11 | 83.31 ± 0.13 | 96.9 | significantly reversed | reversed |  | 
7 | CN(C)c1ccc(/C=C/C(=O)/C=C/c2ccc(N(C)C)cc2)cc1 [h4, (1E,4E)-1,5-bis(4-(Dimethylamino)phenyl)penta-1,4-dien-3-one] | no promising results |  | 35.71 ± 1.13 | 30.42 ± 1.24 | 27.16 ± 0.11 | 35.33 ± 0.19 | 42.62 ± 0.12 | 49.51 ± 0.16 | 56.32 ± 0.18 | 1600 | 31.41 ± 0.13 | 39.45 ± 0.04 | 46.32 ± 0.15 | 58.16 ± 0.11 | 63.51 ± 0.17 | 920 | no promising results | no prominent | comparable values | 
